Measured values from US20250215039A1, “NUCLEOSIDES FOR TREATING CANCER” (PRIMEFOUR THERAPEUTICS, INC., priority 2022, published 2025).
pIC50: −log10 of the molar value. Like-named read-outs stand apart in the source and are kept apart here.

Tested on: cancer cell lines
Experiment: Cancer cell proliferation activity (CellTiterGlo, 72 h)
Type: cell-based
Conditions: 72 h, 72 h, read-out: IC50 cell proliferation
Summary of the method: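 Readout is CellTiterGlo luminescence after 72 h compound exposure (0.1% DMSO final), started one day post-seeding, at 37 °C.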

## Nc1nc(F)nc2c1ncn2[C@@H]1O[C@H](CO)[C@@H](O)[C@@H]1O [compound 170, (2R,3S,4S,5R)-2-(6-amino-2-fluoro-9H-purin-9-yl)-5-(hydroxymethyl)tetrahydrofuran-3,4-diol]
5637 (bladder)
  pIC50: 5.62
CLS439 (bladder)
  pIC50: 4.34
HS729 (muscle)
  pIC50: 5.45
J82 (bladder)
  pIC50: 4.71
JAR (placenta)
  pIC50: 4.34
MT3 (breast)
  pIC50: 5.70
PANCI (pancreas)
  pIC50: 4.78
PC3 (prostate)
  pIC50: 5.60
RD (muscle)
  pIC50: 4.92
T24 (bladder)
  pIC50: 5.23
Homo sapiens, 22Rv1, 72 h, 22RV1 (prostate)
  pIC50: 4.10
Homo sapiens, 786-0, 72 h, 786O (kidney)
  pIC50: 4.53
Homo sapiens, A204, 72 h, A204 (muscle)
  pIC50: 6.28
Homo sapiens, A549, 72 h, A549 (lung)
  pIC50: 5.05
Homo sapiens, A673, 72 h, A673 (bone)
  pIC50: 4.96
Homo sapiens, A2780, 72 h, A2780 (ovary)
  pIC50: 5.15
Homo sapiens, A-375, 72 h, A375 (skin)
  pIC50: 5.01
Homo sapiens, A-431, 72 h, A431 (skin)
  pIC50: 4.95
Homo sapiens, ACHN, ACHN (kidney)
  pIC50: 4.90
Homo sapiens, ASPC1, 72 h, ASPC1 (pancreas)
  pIC50: 5.11
Homo sapiens, BT-20, 72 h, BT20 (breast)
  pIC50: 4.42
Homo sapiens, BXPC-3, 72 h, BXPC3 (pancreas)
  pIC50: 5.16
Homo sapiens, C-33-A, C33A (endometrial)
  pIC50: 5.02
Homo sapiens, CAKI-1, 72 h, CAKI1 (kidney)
  pIC50: 5.61
Homo sapiens, COLO 205, 72 h, COLO205 (colon)
  pIC50: 5.55
Homo sapiens, COLO-678, 72 h, COLO678 (colon)
  pIC50: 4.66
Homo sapiens, Ca-Ski, CASKI (endometrial)
  pIC50: 3.97
Homo sapiens, Caco-2, 72 h, CACO2 (colon)
  pIC50: 4.31
Homo sapiens, Calu-6, 72 h, CALU6 (lung)
  pIC50: 4.76
Homo sapiens, DLD-1, 72 h, DLD1 (colon)
  pIC50: 4.94
Homo sapiens, DU-145, 72 h, DU145 (prostate)
  pIC50: 5.26
Homo sapiens, EFO-21, 72 h, EFO21 (ovary)
  pIC50: 5.13
Homo sapiens, EJ-28, 72 h, EJ28 (bladder)
  pIC50: 4.98
Homo sapiens, Granta-519, 72 h, GRANTA-519 (hematological)
  pIC50: 5.78
Homo sapiens, HCT-15, 72 h, HCT15 (colon)
  pIC50: 4.91
Homo sapiens, HCT-116, 72 h, HCT116 (colon)
  pIC50: 5.28
Homo sapiens, HEK293, 72 h, HEK293 (kidney)
  pIC50: 4.45
Homo sapiens, HL-60, 72 h, HL-60 (hematological)
  pIC50: 5.69
Homo sapiens, HT-29, 72 h, HT29 (colon)
  pIC50: 4.73
Homo sapiens, HT-1080, 72 h, HT1080 (connective tissue)
  pIC50: 5.39
Homo sapiens, HeLa, HELA (endometrial)
  pIC50: 5.17
Homo sapiens, HepG2, 72 h, HEPG2 (liver)
  pIC50: 4.81
Homo sapiens, Hs-578T, HS578T (breast)
  pIC50: 4.44
Homo sapiens, IGROV-1, 72 h, IGROV1 (ovary)
  pIC50: 4.87
Homo sapiens, IMR-90, 72 h, IMR90 (lung)
  pIC50: 4.93
Homo sapiens, JEG-3, 72 h, JEG3 (placenta)
  pIC50: 4.25
Homo sapiens, JIMT-1, 72 h, JIMT1 (breast)
  pIC50: 5.78
Homo sapiens, K562, 72 h, K-562 (hematological)
  pIC50: 4.38
Homo sapiens, Kasumi 1, 72 h, KASUMI-1 (hematological)
  pIC50: 6.26
Homo sapiens, L-363, 72 h, L-363 (hematological)
  pIC50: 4.48
Homo sapiens, LoVo, LOVO (colon)
  pIC50: 5.01
Homo sapiens, MCF7, 72 h, MCF7 (breast)
  pIC50: 4.57
Homo sapiens, MDA-MB-231, 72 h, MDAMB231 (breast)
  pIC50: 5.54
Homo sapiens, MDA-MB-435, 72 h, MDAMB435 (skin)
  pIC50: 4.85
Homo sapiens, MDA-MB-436, 72 h, MDAMB436 (breast)
  pIC50: 5.47
Homo sapiens, MDA-MB-468, 72 h, MDAMB468 (breast)
  pIC50: 4.63
Homo sapiens, MG-63, 72 h, MG63 (bone)
  pIC50: 4.81
Homo sapiens, MHH-ES-1, 72 h, MHHES1 (bone)
  pIC50: 5.30
Homo sapiens, MIA PaCa-2, 72 h, MIAPACA2 (pancreas)
  pIC50: 4.45
Homo sapiens, MINO, MINO (hematological)
  pIC50: 6.21
Homo sapiens, MV4-11, 72 h, MV4-11 (hematological)
  pIC50: 5.24
Homo sapiens, NCI-H23, 72 h, NCI-H23 (lung)
  pIC50: 5.09
Homo sapiens, NCI-H82, 72 h, NCIH82 (lung)
  pIC50: 4.67
Homo sapiens, NCI-H292, 72 h, NCIH292 (lung)
  pIC50: 5.10
Homo sapiens, NCI-H460, 72 h, NCIH460 (lung)
  pIC50: 4.49
Homo sapiens, OVCAR-3, 72 h, OVCAR3 (ovary)
  pIC50: 5.95
Homo sapiens, OVCAR-4, 72 h, OVCAR4 (ovary)
  pIC50: 4.79
Homo sapiens, PLC-PRF-5, 72 h, PLCPRF5 (liver)
  pIC50: 4.70
Homo sapiens, Panc1005, 72 h, PANC1005 (pancreas)
  pIC50: 5.24
Homo sapiens, Ramos, RAMOS (hematological)
  pIC50: 5.29
Homo sapiens, SAOS-2, 72 h, SAOS2 (bone)
  pIC50: 6.35
Homo sapiens, SF-268, 72 h, SF268 (brain)
  pIC50: 4.79
Homo sapiens, SF-295, 72 h, SF295 (brain)
  pIC50: 4.06
Homo sapiens, SK-BR-3, 72 h, SKBR3 (breast)
  pIC50: 5.80
Homo sapiens, SK-HEP1, 72 h, SKHEP1 (liver)
  pIC50: 5.27
Homo sapiens, SK-LMS-1, 72 h, SKLMS1 (uterus)
  pIC50: 4.35
Homo sapiens, SK-MEL-5, 72 h, SKMEL5 (skin; SKMELS [sic] in Table 9E)
  pIC50: 4.80
Homo sapiens, SK-MEL-28, 72 h, SKMEL28 (skin)
  pIC50: 4.95
Homo sapiens, SK-N-AS, SKNAS (brain)
  pIC50: 4.53
Homo sapiens, SK-N-SH, SKNSH (brain)
  pIC50: 4.65
Homo sapiens, SK-OV-3, 72 h, SKOV3 (ovary)
  pIC50: 5.37
Homo sapiens, SNB-75, 72 h, SNB75 (brain)
  pIC50: 4.30
Homo sapiens, SU-DHL10, 72 h, SU-DHL-10 (hematological)
  pIC50: 5.25
Homo sapiens, SU-DHL-6, 72 h, SU-DHL-6 (hematological)
  pIC50: 4.41
Homo sapiens, SW-620, 72 h, SW620 (colon)
  pIC50: 4.76
Homo sapiens, TE-671, 72 h, TE671 (muscle)
  pIC50: 4.95
Homo sapiens, THP-1, 72 h, THP-1 (hematological)
  pIC50: 5.23
Homo sapiens, U2OS, U20S (bone; U2OS in Table 9E)
  pIC50: 4.86
Homo sapiens, U-87 MG, U87MG (brain)
  pIC50: 5.25
Homo sapiens, UMUC3, 72 h, UMUC3 (bladder)
  pIC50: 4.67
Homo sapiens, UO-31, 72 h, UO31 (kidney)
  pIC50: 5.13
Homo sapiens, WSU-NHL, WSU-NHL (hematological)
  pIC50: 5.72
NCI-H358M, NCIH358M (lung)
  pIC50: 6.54
PBMC, PBMC (hematological)
  pIC50: 6.54
RD-ES, RDES (bone)
  pIC50: 4.45
